Reference: patent publication US6172205A, “Synthetic process toward total synthesis of eleutherobin and its analogues and uses thereof” (The Trustees of Columbia in the City of New York, priority 1998, dated 2001)
“Also recorded” adds a separate entry of the source.

Legend:
[1] = tested on: Human ovarian carcinoma cells SKOV3; experiment: Cytotoxicity by counting cells after 72 h, Taxol-sensitive cells; assay type: cell-based; settings: SK-OV-3, 72 h
Method: (§1) Human non-small cell lung carcinoma cells, A549, were maintained in RPMI 1640 containing 10% fetal bovine serum and 1% penicillin-streptomycin (Gibco Laboratories, Grand Island N.Y.) at 37° C. in 7% CO2. The Taxol-resistant cell line A549-T12 was selected for resistance to Taxol and maintained in a final concentration of 12 nM drug (21). Human ovarian carcinoma cells SKOV3 and the MDR variant SKVBL (obtained from Dr. V. Ling) were maintained in α-mem plus ribonucleotides, deoxynucleotides, 15% fetal bovine serum and 1% penicillin-streptomycin (Gibco Laboratories) at 37° C. in 5% CO2. SKVBL cells were maintained in […] vinblastine (Sigma Chemical Co.).
(§2) Taxol-resistant and sensitive cell lines were seeded into 12-well plates at a density of 5×10^4 cells per well and allowed a period of 12 h for attachment prior to treatment. Cells were exposed to 10-fold serial dilutions of each compound (10^-10 to 10^-6 M) for 72 h. Cells were then trypsinized and counted (Coulter counter model ZF0031, Coulter Corp., Miami, Fla.). The IC50 was determined by plotting cell number against log of the drug concentration and this was used to determine the concentration of compound resulting in 50% growth inhibition compared to untreated cells. Each cell line was assayed in a minimum of 3 independent experiments with each compound and the results expressed as the mean IC50.
(§3) ^a Cytotoxicity determined by counting cells after 72 h drug exposure.

[2] = tested on: cellular microtubules, NIH 3T3 cells; experiment: Microtubule bundle formation by immunofluorescence; assay type: cell-based; settings: 2 μM, 5.5 h
Method: FIG. 9 immunofluorescence images NIH3T3 cells labeled with β-tubulin antibody following exposure to different drugs. A)DMSO; B)2 μM Taxol; C)2 μM eleutherobin; D)2 μM neo-eleutherobin; E)2 μM SKBII.294; F)2 μM SKBIII.13.
Illustrates the effects of eleutherobin and its derivatives on the morphology of cellular microtubules following exposure of cells to 2 μM of each compound for 5.5 h at 37° C. […] The number of micotic asters correlated with the extent of microtubule bundling in interphase cells.
NIH 3T3 cells were grown to subconfluency on glass converslips in 35 mm plastic petri dishes. Cells were exposed to 2 μM of Taxol and each of the experimental compounds for 5.5 h at 37° C., rinsed twice in PBS and extracted with 0.5% Triton-X-100 in microtubule stabilizing buffer (PEM) (100 mM PIPES, 2 mM EGTA and 2 mM MgCl2, pH 6.8) for 4 min. Following a wash in PEM, the cells were fixed for 40 min at room temperature in 3% formaldehyde in PEM followed by incubation in 0.1 M glycine in PBS for 10 min and washing (four times) in PEM containing 5 μM EGTA. Following blocking in 20% normal goat serum (NGS) for 30 min at room temperature, cells were incubated for 1 h at 37° C. with a 1:100 dilution of β-tubulin mAb diluted in 10% NGS, washed twice in 1% BSA, once in PBS and three times in 1% BSA. Cells were then incubated in a 1:200 dilution of the secondary fluorophore antibody, IndocarbocyanineCY3 (Jackson Immunoresearch Laboratories Inc., Pa.) in 20% NGS for 20 min at room temperature. Finally cells were washed three times in 1% BSA and the dried slides mounted in 30% glycerol in PBS containing […]-phenylene diamine (1 mg/ml). Fixed slides were examined using a Zeiss Axioskop microscope.

[3] = tested on: A549-T12 (Taxol-resistant A549); experiment: Cytotoxicity by counting cells after 72 h, Taxol-resistant cells; assay type: cell-based, human
Method: as §1, §2
(§4) The cytotoxic efficacy of eleutherobin and its derivatives (FIG. 6) was evaluated in two drug sensitive human cancer cell lines and their Taxol-resistant counterparts. The results are summarized in Table I in order of decreasing potency. […] The Taxol-resistant cell line SKVBL overexpresses high levels of P-glycoprotein (22). […] The only difference between the two agents is the enantiomeric relationship in the carbohydrate (2'-acetylarabinose) sector (FIG. 6). […] This cell line expressed high levels of MDR1 resulting in Taxol-resistance equal or greater than 1666 -fold compared to the Taxol-sensitive SKOV3 cell line.
as §3

[4] = tested on: MDR1 expressing cell line derived from human colon carcinoma HCT 116 cells; settings: cited from earlier work
microtubules = settings: cited from earlier work
[5] = tested on: Human non-small cell lung carcinoma cells, A549; experiment: Cytotoxicity by counting cells after 72 h, Taxol-sensitive cells; assay type: cell-based
Method: Taxol-resistant and sensitive cell lines were seeded into 12-well plates at a density of 5×10^4 cells per well and allowed a period of 12 h for attachment prior to treatment. […] Cells were then trypsinized and counted (Coulter counter model ZF0031, Coulter Corp., Miami, Fla.).

P-glycoprotein = P-glycoprotein substrate behaviour inferred from resistance of SKVBL cells; assay type: cell-based, human
Method: as §1, §2, §4

Structure (SMILES): CO[C@]12C=C[C@](C)(O1)[C@@H](OC(=O)/C=C/c1cn(C)cn1)C[C@H]1C(C)=CC[C@H](C(C)C)[C@H]1/C=C\2CO[C@@H]1OC[C@@H](O)[C@@H](O)[C@@H]1OC(C)=O [Eleutherobin]
- IC50 [1]: 9.5 nM
- microtubule bundle formation (in words) ([2]; 37 °C): extensive microtubule bundling
- multiple asters in mitotic cells ([2]; data not shown): also seen in eleutherobin and neo-eleutherobin-treated cells
- fold resistance relative to the parental cell line ([3]; A549-T12 vs A549, 4320 min): 1.9 fold
- IC50 ([3]; Homo sapiens, Lung Carcinoma A549, Resistant (A549-T12), 72 h, mean of at least three independent experiments): 12.2 nM
- cross-resistance in A549-T12 (in words) ([3]; Taxol-resistant, not expressing P-glycoprotein): neither eleutherobin nor neo-eleutherobin displayed cross-resistance; also recorded: neither of these compounds showed cross-resistance
- cross-resistance in MDR1 expressing HCT 116-derived cells (in words) [4]: demonstrated cross-resistance in an MDR1 expressing cell line
- effect on microtubules (in words) (microtubules): potentiates the assembly of stable microtubules resistant to depolymerization; also recorded: promotes the polymerization of stable microtubules
- IC50 ([5]; Homo sapiens, A549, 72 h): 6 nM
- fold less potent than Taxol ([5]; both sensitive cell lines (A549, SKOV3)): 3 fold
- cytotoxicity (in words) ([5]; sensitive cell lines (A549, SKOV3)): IC50 value comparable at Taxol; also recorded: within the nM range
- P-glycoprotein substrate (in words) (P-glycoprotein): excellent substrates for P-glycoprotein
